According to ChEMBL document CHEMBL3627608, “Crystal structures of human RIP2 kinase catalytic domain complexed with ATP-competitive inhibitors: Foundations for understanding inhibitor selectivity” (Bioorg Med Chem, 2015):

Experiments:
[1] = target: Mitogen-activated protein kinase 14 (Homo sapiens) (UniProt Q16539); assay: Inhibition of P38alpha (unknown origin) at 10 uM after 120 mins P33 radiolabeled kinase activity assay
[2] = target: T1, Myotonin-protein kinase (Homo sapiens) (UniProt Q09013); assay: Inhibition of DMPK (unknown origin) at 10 uM after 120 mins P33 radiolabeled kinase activity assay
T1 sequence (whole entry): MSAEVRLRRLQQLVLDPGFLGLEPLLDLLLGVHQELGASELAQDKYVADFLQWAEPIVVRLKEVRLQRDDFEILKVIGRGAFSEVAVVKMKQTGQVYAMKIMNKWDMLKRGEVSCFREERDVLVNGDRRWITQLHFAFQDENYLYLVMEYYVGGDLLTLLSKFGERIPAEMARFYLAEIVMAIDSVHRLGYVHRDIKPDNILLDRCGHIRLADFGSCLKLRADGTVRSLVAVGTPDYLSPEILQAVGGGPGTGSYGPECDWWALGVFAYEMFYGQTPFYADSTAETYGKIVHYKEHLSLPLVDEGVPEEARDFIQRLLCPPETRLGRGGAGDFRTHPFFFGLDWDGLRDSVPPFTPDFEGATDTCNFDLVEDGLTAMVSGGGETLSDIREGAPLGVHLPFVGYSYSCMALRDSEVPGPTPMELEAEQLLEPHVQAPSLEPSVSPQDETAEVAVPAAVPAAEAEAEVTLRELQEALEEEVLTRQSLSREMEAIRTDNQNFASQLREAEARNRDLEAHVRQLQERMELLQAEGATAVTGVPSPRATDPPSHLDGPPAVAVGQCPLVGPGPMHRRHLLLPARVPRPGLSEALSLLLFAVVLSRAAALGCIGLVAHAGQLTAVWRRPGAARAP

[3] = target: T2, Serine/threonine-protein kinase BRSK2 (Homo sapiens) (UniProt Q8IWQ3); assay: Inhibition of BRSK2 (unknown origin) at 10 uM after 120 mins P33 radiolabeled kinase activity assay
T2 sequence (whole entry): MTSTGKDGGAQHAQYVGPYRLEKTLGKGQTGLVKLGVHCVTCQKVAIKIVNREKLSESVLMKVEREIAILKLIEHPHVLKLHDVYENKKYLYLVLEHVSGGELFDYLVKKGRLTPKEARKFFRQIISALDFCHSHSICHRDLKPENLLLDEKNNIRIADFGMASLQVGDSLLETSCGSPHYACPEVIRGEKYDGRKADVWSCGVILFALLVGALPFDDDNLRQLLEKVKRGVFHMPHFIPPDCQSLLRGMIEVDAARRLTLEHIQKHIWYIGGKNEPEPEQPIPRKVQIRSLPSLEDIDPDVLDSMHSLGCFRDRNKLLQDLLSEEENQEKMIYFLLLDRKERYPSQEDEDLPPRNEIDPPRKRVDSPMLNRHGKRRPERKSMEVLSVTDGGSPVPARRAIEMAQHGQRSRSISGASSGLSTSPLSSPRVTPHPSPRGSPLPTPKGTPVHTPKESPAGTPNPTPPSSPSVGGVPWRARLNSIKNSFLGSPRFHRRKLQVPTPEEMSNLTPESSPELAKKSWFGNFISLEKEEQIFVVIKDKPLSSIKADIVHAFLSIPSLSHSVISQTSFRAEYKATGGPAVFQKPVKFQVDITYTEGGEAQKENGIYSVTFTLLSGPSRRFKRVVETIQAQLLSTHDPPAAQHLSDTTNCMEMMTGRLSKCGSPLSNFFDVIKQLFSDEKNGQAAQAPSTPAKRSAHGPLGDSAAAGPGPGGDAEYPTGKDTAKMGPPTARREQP

[4] = target: Mitogen-activated protein kinase 3 (Homo sapiens) (UniProt P27361); assay: Inhibition of ERK1 (unknown origin) at 10 uM after 120 mins P33 radiolabeled kinase activity assay
Chain of Mitogen-activated protein kinase 3 (Homo sapiens) (P27361 whole entry): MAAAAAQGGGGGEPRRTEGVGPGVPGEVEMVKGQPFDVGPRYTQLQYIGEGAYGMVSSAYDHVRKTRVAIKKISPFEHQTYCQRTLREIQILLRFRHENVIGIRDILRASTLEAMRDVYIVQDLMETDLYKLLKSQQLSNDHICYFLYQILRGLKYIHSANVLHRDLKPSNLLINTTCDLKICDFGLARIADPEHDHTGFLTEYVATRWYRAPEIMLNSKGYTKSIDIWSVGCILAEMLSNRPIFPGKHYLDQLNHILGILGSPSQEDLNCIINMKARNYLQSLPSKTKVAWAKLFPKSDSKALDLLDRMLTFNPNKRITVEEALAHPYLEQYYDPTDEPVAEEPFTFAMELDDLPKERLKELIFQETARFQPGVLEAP

[5] = target: Receptor-interacting serine/threonine-protein kinase 2 (Homo sapiens, UniProt O43353); assay: Inhibition of full-length FLAG-6His-TEV tagged human RIP2 expressed in Sf9 cells assessed as residence time by fluorescent polarization assay
Chain of Receptor-interacting serine/threonine-protein kinase 2 (O43353 whole entry): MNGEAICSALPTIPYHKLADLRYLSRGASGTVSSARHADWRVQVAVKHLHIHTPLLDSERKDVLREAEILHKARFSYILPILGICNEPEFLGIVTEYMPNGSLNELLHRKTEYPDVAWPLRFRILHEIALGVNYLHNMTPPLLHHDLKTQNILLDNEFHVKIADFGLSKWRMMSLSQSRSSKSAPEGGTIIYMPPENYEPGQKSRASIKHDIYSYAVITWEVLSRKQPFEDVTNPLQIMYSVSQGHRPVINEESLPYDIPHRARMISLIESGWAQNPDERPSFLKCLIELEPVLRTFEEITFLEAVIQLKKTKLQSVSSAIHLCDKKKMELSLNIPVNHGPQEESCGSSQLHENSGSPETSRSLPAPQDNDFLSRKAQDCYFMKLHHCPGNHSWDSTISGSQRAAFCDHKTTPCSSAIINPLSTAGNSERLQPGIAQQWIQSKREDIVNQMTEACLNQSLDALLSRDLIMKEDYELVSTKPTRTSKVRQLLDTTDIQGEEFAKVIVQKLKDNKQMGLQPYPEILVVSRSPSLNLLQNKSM

[6] = target: Tyrosine-protein kinase Fyn (Homo sapiens) (UniProt P06241); assay: Inhibition of FYN (unknown origin) at 10 uM after 120 mins P33 radiolabeled kinase activity assay
Chain of Tyrosine-protein kinase Fyn (Homo sapiens) (P06241 2-537 limits assumed): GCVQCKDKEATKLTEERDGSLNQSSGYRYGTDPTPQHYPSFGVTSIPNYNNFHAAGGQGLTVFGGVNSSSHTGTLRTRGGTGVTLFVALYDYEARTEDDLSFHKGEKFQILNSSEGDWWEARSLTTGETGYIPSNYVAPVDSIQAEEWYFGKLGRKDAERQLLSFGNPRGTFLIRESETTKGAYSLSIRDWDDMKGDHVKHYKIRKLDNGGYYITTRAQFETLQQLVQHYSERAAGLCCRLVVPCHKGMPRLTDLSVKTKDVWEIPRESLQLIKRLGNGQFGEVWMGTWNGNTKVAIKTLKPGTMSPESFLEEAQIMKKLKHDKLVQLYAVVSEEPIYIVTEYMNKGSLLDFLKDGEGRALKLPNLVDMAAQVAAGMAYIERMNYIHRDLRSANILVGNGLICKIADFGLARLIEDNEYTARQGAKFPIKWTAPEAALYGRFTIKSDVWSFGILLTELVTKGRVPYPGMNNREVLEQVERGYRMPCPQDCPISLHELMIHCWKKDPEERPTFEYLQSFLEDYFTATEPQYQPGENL

[7] = target: Serine/threonine-protein kinase Nek4 (Homo sapiens) (UniProt P51957); assay: Inhibition of NEK4 (unknown origin) at 10 uM after 120 mins P33 radiolabeled kinase activity assay
Chain of Serine/threonine-protein kinase Nek4 (Homo sapiens) (P51957 whole entry, looked up): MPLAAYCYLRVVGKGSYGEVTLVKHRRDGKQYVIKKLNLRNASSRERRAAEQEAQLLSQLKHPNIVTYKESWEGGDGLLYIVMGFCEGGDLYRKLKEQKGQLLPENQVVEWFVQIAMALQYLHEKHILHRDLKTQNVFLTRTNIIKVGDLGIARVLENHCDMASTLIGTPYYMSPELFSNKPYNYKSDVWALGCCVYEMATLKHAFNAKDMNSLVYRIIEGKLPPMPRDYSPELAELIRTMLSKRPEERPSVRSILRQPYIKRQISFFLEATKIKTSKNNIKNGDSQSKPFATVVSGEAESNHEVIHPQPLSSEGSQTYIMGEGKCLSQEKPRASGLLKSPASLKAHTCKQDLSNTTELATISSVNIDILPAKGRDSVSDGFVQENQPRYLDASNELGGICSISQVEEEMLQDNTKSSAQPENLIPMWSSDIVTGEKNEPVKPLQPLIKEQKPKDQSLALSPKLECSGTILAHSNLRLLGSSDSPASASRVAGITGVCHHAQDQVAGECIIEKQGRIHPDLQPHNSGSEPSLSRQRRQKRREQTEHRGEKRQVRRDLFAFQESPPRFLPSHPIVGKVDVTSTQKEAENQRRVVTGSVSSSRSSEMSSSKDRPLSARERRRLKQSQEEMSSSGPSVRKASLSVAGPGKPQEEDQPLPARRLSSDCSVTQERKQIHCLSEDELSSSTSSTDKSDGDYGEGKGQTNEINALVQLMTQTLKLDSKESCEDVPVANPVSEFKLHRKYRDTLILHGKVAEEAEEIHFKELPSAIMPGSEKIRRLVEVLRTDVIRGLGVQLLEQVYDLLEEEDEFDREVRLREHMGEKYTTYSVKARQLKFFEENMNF

[8] = target: T3, Serine/threonine-protein kinase TAO2 (Homo sapiens) (UniProt Q9UL54); assay: Inhibition of TAOK2 (unknown origin) at 10 uM after 120 mins P33 radiolabeled kinase activity assay
T3 sequence (whole entry): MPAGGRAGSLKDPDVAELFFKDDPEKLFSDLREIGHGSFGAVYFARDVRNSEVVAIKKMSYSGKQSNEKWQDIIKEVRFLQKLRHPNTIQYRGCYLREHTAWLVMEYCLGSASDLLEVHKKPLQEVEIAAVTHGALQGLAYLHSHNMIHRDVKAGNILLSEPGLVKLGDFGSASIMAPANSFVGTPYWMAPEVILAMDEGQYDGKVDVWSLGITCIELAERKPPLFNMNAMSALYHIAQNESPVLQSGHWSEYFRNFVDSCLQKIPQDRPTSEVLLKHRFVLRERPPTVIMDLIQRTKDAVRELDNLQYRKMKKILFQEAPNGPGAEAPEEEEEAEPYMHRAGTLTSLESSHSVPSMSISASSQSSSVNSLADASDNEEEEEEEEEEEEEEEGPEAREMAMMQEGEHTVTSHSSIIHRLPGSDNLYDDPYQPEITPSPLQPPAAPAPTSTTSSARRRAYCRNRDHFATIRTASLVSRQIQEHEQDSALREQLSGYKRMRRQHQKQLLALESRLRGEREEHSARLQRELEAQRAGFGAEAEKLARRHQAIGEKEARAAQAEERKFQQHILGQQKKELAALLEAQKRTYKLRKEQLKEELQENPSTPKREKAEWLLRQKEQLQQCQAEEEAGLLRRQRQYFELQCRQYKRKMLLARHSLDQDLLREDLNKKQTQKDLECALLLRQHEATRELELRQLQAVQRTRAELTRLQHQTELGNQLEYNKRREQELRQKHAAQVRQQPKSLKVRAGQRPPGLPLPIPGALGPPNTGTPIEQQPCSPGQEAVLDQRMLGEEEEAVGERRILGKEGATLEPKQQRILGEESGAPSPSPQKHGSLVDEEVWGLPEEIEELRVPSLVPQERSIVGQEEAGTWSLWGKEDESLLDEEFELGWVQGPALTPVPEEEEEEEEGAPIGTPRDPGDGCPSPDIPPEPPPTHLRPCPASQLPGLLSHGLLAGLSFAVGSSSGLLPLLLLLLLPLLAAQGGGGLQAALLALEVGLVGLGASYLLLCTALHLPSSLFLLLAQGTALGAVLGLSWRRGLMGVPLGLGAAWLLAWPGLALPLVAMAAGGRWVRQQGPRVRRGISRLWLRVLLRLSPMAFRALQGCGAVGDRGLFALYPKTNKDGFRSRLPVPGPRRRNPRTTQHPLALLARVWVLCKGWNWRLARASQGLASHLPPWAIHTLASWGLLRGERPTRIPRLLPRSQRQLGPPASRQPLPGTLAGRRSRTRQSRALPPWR

Chain of Mitogen-activated protein kinase 14 (Homo sapiens) (Q16539 whole entry): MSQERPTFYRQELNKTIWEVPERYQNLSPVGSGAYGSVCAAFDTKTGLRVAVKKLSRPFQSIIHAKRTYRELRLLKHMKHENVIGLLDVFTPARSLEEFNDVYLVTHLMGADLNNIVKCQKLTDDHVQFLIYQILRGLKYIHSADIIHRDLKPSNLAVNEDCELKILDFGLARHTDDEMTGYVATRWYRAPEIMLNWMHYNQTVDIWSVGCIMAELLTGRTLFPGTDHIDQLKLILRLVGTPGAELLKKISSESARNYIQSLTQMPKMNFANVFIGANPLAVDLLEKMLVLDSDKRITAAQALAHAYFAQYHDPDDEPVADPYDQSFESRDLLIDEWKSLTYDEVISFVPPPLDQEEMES

Row | inhibition [1] | inhibition [2] | inhibition [3] | inhibition [4] | T1/2 [5] | inhibition [6] | inhibition [7] | inhibition [8] | SMILES
1 | 18.8% | -2.69% | 34% | -3.91% | 1.32 h | 99.8% | 59.9% | 77.8% | CS(=O)(=O)c1cccc(Nc2nccc(-c3sc(N4CCOCC4)nc3-c3cccc(NS(=O)(=O)c4c(F)cccc4F)c3)n2)c1
2 | 62.3% | -6.45% | 26.4% | 1.41% | 0.00167 h | 49.1% | -2.37% | 1.71% | COCCNC(=O)c1ccc2c(c1)nc(-c1cnc(-c3ccc(Cl)cc3)[nH]1)n2CCOC
3 | 98.9% | -2.09% | 18.2% | 3.03% | 1.42 h | 85.8% | 21.7% | 96.7% | CC(C)(C)c1cc(NC(=O)Nc2ccc(Oc3ccncc3)cc2)no1
